Measured values published in patent publication US12551475B2, “Methods and compositions for treating RNA viral infections” (Model Medicines, Inc., priority 2020, dated 2026).
Where a name gives a salt, the structure may show the parent alone. Read-outs that look alike come from different tables or passages of the source.

How the values were obtained:
MCF-7:C cells = settings: 10 nM; cited from earlier work
hepatitis B virus (HBV) = settings: HepG2 2.2.15 cells infected with HBV; cited from earlier work
HepG2 2.2.15 cells = settings: cited from earlier work
HBV = settings: mouse, in vivo; cited from earlier work
HIV-1 = settings: MT-4 cells; cited from earlier work
HCT116 cells = settings: cited from earlier work
MKN45 cells = settings: cited from earlier work
SIHA cells = settings: cited from earlier work
MCF-7 cells = settings: cited from earlier work
Scaber cells = settings: cited from earlier work
COLO205 cells = settings: cited from earlier work
[1] = molecular target: transient receptor potential canonical channel 5 (TRPC5) (Homo sapiens, UniProt Q9UL62); settings: cited from earlier work
[2] = molecular target: GABAA receptor α1 subunits (Homo sapiens, UniProt P14867); settings: cited from earlier work
[3] = tested on: tropomyosin-related kinases TrkA, TrkB, and TrkC; settings: cited from earlier work
MO-91 = settings: cited from earlier work
CUTO-3.29 = settings: cited from earlier work
KM12 = settings: cited from earlier work
[4] = tested on: isolated peripheral blood mononuclear cells; settings: cited from earlier work
[5] = molecular target: human acidic mammalian chitinase (Homo sapiens, UniProt Q9BZP6); settings: cited from earlier work
[6] = molecular target: lysophosphatidic acyl transferase (LPAAT); settings: LPS-activated LPAAT; read-out: IC50 (generation of phosphatidic acid); cited from earlier work
HIV-2 protease = HIV-2 protease (Human immunodeficiency virus type 2 subtype A, UniProt P04584); settings: cited from earlier work
[7] = 20 mg/kg saquinavir with 50 mg/kg ritonavir, mice; cited from earlier work
γ-secretase = settings: cited from earlier work
ACE2 = molecular target: T1, ACE2 (Homo sapiens, UniProt Q9BYF1); experiment: ACE2 activity assay; format: biochemical
T1 construct: purchased BPS Bioscience 79923 (assay kit)
Source text: The ACE2 Activity Assay described in this example is designed to measure the exopeptidase activity of ACE2 for screening and profiling applications. The ACE2 assay can be performed in a convenient 96-well format, with purified ACE2, its substrate, and ACE2 buffer for 96 reactions. See https://bpsioscience.com/ace2-inhibitor-screening-assay-kit-79923
ACE2, ACE2 Fluorogenic Substrate, ACE2 buffer, 96-well black microplate. Adjustable micropipettor and sterile tips and Fluorescent microplate reader.
All Samples and Controls were Tested in Duplicate.
• 1. Thawed ACE2 on ice. Upon first thaw, tube containing enzyme was briefly spun to recover full contents of the tube. Note: ACE2 is sensitive to freeze/thaw cycles. • 2. Prepared Enzyme solution (0.5 ng/μl ACE2) by diluting ACE2 in ACE2 Buffer. • 3. Added 20 μl of Enzyme solution (0.5 ng/μl ACE2) to each well designated “Positive Control” and “Test Inhibitor,” and 20 μl of ACE2 buffer to each well designated “Blank.” • 4. Added 5 μl of Test Inhibitor solution to each well designated “Test Inhibitor.” For the wells labeled “Positive Control” and “Blank,” added 5 μl of 10% DMSO in water (Inhibitor buffer). The final concentration of DMSO in the reaction was kept ≤1%. • 5. Added 25 μl of ACE2 Fluorogenic Substrate to all wells. Protected from light and reaction was incubated at room temperature for 60 minutes.
• 6. The fluorescence intensity of the samples (λexcitation=555 nm; λemission=585 nm) was read in an appropriate microplate reader. Data Analysis
All of the enzyme activity assays were performed in duplicates at each concentration. The fluorescent intensity data were analyzed using the computer software Graphpad Prism. In the absence of the compound, the fluorescent intensity (Ft) in each data set was defined as 100% activity. In the absence of the enzyme, the fluorescent intensity (Fb) in each data set was defined as 0% activity. The percent activity in the presence of each compound was calculated according to the following equation: % activity=(F−Fb)/(Ft−Fb), where F=the fluorescent intensity in the presence of the compound.
The values of percentage activity were plotted on a bar graph.

Notch signaling = settings: cited from earlier work
HIV aspartyl protease = HIV aspartyl protease (Human immunodeficiency virus type 1 group M subtype B, UniProt P04585); settings: cited from earlier work
[8] = tested on: HT-29 human colon adenocarcinoma cells; settings: read-out: IC50 (cytotoxicity); cited from earlier work
[9] = tested on: HT-29 human colon adenocarcinoma cells; settings: read-out: IC50 (DNA damage); cited from earlier work
[10] = molecular target: mitochondrial long-chain 3-ketoacyl thiolase (Homo sapiens, UniProt P55084); settings: cited from earlier work
Chain of mitochondrial long-chain 3-ketoacyl thiolase (P55084 34-474): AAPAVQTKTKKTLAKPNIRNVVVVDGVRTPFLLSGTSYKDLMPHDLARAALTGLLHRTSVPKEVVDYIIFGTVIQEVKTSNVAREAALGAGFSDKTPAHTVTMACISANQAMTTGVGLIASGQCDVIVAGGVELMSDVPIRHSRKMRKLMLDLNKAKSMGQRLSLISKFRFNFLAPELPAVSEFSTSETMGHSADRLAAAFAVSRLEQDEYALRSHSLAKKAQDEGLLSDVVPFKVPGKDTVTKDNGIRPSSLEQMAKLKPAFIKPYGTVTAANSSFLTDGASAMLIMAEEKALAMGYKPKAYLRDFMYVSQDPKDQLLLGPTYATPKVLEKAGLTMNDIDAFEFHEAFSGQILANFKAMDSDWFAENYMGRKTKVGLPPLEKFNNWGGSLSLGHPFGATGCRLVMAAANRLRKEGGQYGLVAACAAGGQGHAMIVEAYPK
Chain of mitochondrial long-chain 3-ketoacyl thiolase (P40939 37-763 partner): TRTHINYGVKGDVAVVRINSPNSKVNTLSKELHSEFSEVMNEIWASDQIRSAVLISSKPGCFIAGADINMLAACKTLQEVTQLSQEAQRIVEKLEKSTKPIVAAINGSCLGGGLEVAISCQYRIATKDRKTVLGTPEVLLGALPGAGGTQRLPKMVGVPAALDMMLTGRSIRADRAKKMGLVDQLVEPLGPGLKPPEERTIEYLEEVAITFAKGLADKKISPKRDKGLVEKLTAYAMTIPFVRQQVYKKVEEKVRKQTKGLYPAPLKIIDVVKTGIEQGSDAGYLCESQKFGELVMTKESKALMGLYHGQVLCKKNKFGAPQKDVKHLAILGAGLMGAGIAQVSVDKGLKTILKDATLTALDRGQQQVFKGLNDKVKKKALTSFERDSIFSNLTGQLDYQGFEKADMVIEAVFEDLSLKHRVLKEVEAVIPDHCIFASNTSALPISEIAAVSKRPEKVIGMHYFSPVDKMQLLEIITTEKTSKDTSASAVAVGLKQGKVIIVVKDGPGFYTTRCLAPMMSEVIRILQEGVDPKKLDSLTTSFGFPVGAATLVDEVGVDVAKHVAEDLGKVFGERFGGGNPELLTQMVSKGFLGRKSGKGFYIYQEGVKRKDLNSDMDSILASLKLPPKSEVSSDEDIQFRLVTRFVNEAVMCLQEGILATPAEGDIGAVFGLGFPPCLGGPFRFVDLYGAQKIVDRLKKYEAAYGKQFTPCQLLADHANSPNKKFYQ

T1 sequence (Q9BYF1 18-805): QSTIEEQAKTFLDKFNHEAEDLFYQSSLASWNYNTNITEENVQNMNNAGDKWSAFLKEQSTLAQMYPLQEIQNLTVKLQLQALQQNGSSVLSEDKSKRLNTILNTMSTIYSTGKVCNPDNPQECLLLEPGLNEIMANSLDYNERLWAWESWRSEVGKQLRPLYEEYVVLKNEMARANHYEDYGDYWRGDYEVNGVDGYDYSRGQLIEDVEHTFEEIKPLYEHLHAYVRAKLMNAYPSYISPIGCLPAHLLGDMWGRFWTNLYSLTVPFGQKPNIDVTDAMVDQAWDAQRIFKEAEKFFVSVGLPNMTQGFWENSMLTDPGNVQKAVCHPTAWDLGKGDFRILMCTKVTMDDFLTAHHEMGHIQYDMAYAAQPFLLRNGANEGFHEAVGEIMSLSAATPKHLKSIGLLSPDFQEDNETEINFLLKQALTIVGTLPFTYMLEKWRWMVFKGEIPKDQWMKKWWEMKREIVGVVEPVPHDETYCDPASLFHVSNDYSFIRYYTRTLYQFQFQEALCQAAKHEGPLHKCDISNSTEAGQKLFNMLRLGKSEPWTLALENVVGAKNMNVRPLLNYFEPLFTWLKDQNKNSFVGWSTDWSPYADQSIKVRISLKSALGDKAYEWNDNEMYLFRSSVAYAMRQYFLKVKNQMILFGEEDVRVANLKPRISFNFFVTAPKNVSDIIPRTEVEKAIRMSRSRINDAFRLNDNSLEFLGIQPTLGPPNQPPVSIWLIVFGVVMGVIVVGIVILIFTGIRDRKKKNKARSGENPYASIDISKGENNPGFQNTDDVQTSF
Chain of transient receptor potential canonical channel 5 (TRPC5) (Q9UL62 whole entry, species assumed): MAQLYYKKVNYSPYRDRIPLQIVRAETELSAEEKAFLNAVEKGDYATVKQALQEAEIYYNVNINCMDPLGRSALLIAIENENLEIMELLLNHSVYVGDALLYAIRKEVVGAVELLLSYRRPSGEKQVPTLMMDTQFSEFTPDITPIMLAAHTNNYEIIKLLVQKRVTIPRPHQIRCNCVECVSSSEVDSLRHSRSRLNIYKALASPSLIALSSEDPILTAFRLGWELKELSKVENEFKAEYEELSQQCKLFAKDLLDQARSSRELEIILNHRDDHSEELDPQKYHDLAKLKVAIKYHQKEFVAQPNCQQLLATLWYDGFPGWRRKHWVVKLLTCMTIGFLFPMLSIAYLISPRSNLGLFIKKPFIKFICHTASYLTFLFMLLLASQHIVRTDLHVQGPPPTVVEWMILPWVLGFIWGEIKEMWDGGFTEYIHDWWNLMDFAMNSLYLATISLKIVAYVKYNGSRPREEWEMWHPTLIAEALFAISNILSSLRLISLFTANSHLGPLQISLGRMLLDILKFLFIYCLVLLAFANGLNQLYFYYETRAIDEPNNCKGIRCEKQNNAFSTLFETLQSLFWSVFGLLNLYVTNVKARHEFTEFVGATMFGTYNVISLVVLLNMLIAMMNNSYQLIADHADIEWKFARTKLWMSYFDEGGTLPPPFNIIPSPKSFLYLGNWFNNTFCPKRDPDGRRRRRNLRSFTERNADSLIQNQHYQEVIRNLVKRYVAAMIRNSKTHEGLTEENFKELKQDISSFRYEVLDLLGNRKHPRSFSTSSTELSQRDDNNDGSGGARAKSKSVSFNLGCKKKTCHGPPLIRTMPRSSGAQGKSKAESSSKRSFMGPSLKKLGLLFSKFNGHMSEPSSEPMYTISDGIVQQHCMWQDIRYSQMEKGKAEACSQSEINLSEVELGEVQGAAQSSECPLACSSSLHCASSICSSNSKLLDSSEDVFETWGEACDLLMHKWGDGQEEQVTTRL
Chain of HIV-2 protease (P04584 514-612 limits assumed): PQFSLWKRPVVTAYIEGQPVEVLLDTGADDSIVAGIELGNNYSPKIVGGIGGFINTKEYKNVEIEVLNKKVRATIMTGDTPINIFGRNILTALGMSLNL
Chain of human acidic mammalian chitinase (Q9BZP6 22-476): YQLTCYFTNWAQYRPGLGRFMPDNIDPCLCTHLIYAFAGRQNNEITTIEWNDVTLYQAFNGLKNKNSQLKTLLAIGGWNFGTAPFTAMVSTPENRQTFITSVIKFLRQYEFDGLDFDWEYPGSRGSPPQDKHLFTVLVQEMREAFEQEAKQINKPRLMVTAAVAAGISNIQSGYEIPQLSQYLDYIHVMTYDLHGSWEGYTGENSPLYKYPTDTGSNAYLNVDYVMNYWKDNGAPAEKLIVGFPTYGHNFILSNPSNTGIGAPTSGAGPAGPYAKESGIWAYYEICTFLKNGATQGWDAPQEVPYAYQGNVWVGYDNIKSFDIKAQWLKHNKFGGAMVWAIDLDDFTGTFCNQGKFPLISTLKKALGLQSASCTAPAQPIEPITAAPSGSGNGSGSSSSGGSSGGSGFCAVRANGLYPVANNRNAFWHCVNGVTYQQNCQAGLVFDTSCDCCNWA
Chain of GABAA receptor α1 subunits (P14867 28-456): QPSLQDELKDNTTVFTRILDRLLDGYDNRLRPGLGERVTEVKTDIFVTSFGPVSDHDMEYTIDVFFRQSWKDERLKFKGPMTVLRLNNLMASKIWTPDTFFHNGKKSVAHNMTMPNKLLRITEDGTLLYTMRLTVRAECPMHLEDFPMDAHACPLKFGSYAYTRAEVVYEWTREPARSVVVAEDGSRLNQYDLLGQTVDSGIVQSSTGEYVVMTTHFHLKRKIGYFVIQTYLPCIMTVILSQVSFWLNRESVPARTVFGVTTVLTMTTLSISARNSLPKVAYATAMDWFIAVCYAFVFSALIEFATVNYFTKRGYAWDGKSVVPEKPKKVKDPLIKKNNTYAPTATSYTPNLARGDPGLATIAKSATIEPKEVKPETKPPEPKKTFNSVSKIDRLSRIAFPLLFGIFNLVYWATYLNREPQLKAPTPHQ
Chain of GABAA receptor α1 subunits (P47870 25-512 partner limits assumed): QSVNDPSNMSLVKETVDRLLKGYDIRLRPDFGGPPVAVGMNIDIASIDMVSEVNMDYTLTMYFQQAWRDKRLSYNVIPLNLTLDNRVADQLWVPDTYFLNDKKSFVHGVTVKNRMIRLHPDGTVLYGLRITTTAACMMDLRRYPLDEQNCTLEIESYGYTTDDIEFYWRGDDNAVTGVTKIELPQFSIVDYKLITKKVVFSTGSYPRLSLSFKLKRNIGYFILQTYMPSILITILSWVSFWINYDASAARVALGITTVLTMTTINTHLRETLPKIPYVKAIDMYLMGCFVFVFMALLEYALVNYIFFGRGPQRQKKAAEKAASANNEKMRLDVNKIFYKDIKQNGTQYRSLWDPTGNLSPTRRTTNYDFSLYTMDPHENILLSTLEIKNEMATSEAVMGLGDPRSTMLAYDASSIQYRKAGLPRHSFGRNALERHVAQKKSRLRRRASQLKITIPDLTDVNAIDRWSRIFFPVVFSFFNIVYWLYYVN
Chain of GABAA receptor α1 subunits (P18507 40-467 partner limits assumed): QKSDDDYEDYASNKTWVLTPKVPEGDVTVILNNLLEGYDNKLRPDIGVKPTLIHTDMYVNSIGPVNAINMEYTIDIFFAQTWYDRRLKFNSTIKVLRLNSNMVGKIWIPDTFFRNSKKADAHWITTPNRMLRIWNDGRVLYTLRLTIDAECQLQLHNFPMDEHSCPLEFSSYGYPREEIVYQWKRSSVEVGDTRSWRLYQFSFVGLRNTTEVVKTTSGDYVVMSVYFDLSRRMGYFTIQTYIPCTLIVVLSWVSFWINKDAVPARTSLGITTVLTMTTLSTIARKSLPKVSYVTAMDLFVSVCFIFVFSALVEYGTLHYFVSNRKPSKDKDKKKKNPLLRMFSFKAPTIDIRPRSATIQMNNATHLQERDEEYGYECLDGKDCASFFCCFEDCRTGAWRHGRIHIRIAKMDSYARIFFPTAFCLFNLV

In the case of “1-[[4-[2-(hexahydro-1H-azepin-1-yl)ethoxy]phenyl]methyl]-2-(4-hydroxyphenyl)-3-methyl-1H-indol-5-ol, acetate [Bazedoxifene (acetate)]”, the reduction of growth (MCF-7:C cells) is given as 80%.
In the case of `CC(C)(C)C(=O)OCOP(=O)(COCCn1cnc2c(N)ncnc21)OCOC(=O)C(C)(C)C` [Adefovir dipivoxil, 2,2-dimethyl-propanoic acid, 1,1′-[[[[2-(6-amino-9H-purin-9-yl)ethoxy]methyl]phosphinylidene]bis(oxymethylene)]ester], the EC50 (hepatitis B virus (HBV)) is listed as 0.517 µM, the CC50 (HepG2 2.2.15 cells) is listed as 540 µM and the ED50 (HBV) is listed as 0.2 μmol/kg per day.
In the case of `CC(C)CN(C[C@@H](O)[C@H](Cc1ccccc1)NC(=O)O[C@H]1CCOC1)S(=O)(=O)c1ccc(N)cc1` [Amprenavir, N-[(1S,2R)-3-[[(4-aminophenyl)sulfonyl](2-methylpropyl)amino]-2-hydroxy-1-(phenylmethyl)propyl]-carbamic acid, (3S)-tetrahydro-3-furanyl ester], the IC50 (HIV-1) is listed as 0.15 µM.
For `CCCCCOC(=O)Nc1nc(=O)n([C@@H]2O[C@H](C)[C@@H](O)[C@H]2O)cc1F` [Capecitabine, 5′-deoxy-5-fluoro-N-[(pentyloxy)carbonyl]-cytidine], the IC50 (HCT116 cells) is listed as > 1000 µM, the IC50 (MKN45 cells) is listed as 994 µM and the IC50 (SIHA cells) is listed as 578 µM. The IC50 (MCF-7 cells) was > 1000 µM, the IC50 (Scaber cells) was 97 µM and the IC50 (COLO205 cells) was > 1000 µM.
For `Clc1ccc(Cn2c(CN3CCCC3)nc3ccccc32)cc1` [Clemizole, 1-[(4-chlorophenyl)methyl]-2-(1-pyrrolidinylmethyl)-1H-benzimidazole, monohydrochloride], the IC50 [1] is given as 1 to 1.3 µM.
For `CC(=O)N(C)c1cccc(-c2ccnc3c(C(=O)c4cccs4)cnn23)c1` [Indiplon, N-methyl-N-[3-[3-(2-thienylcarbonyl)pyrazolo[1,5-a]pyrimidin-7-yl]phenyl]-acetamide], the EC50 [2] is listed as 0.0026 µM.
For `O=C(Nc1cnn2ccc(N3CCC[C@@H]3c3cc(F)ccc3F)nc12)N1CC[C@H](O)C1` [LOXO-101, (3S)—N-[5-[(2R)-2-(2,5-difluorophenyl)-1-pyrrolidinyl]pyrazolo[1,5-a]pyrimidin-3-yl]-3-hydroxy-1-pyrrolidinecarboxamide], the IC50 [3] is listed as 0.002 to 0.02 µM, the IC50 (MO-91) is listed as < 0.01 µM and the IC50 (CUTO-3.29) is listed as < 0.1 µM. The IC50 (KM12) was < 0.01 µM.
For `CC(=O)CCCCn1c(=O)c2c(ncn2C)n(C)c1=O` [Pentoxifylline, 3,7-dihydro-3,7-dimethyl-1-(5-oxohexyl)-1H-purine-2,6-dione], the IC50 [4] is given as 85 µM, the IC50 [5] is given as 49 µM and the IC50 [6] is given as 500 µM.
For `CC(C)(C)NC(=O)[C@@H]1C[C@@H]2CCCC[C@@H]2CN1C[C@@H](O)[C@H](Cc1ccccc1)NC(=O)[C@H](CC(N)=O)NC(=O)c1ccc2ccccc2n1.CS(=O)(=O)O` [Saquinavir, (2S)—N^1—[(1S,2R)-3-[(3S,4aS,8aS)-3-[[(1,1-dimethylethyl)amino]carbonyl]octahydro-2(1H)-isoquinolinyl]-2-hydroxy-1-(phenylmethyl)propyl]-2-[(2-quinolinylcarbonyl)amino]-butanediamide, monomethanesulfonate], the Ki (HIV-2 protease) is given as < 0.0001 µM and the increase of bioavailability [7] is given as 325 fold.
In the case of `CC(C)[C@H](O)C(=O)N[C@@H](C)C(=O)N[C@@H]1C(=O)N(C)CCc2ccccc21` [Semagacestat, (2S)-2-hydroxy-3-methyl-N-[(1S)-1-methyl-2-oxo-2-[[(1S)-2,3,4,5-tetrahydro-3-methyl-2-oxo-1H-3-benzazepin-1-yl]amino]ethyl]-butanamide], the IC50 (γ-secretase; Aβ38, read-out: IC50 (production of Aβ38)) is given as 0.012 µM, the IC50 (γ-secretase; Aβ40, read-out: IC50 (production of Aβ40)) is given as 0.0121 µM and the IC50 (γ-secretase; Aβ42, read-out: IC50 (production of Aβ42)) is given as 0.0109 µM. For the same molecule, the “ACE2 Activity (Fluorescence count) Repeat 1” value (ACE2; Semagacestat 0.00586 μM, Repeat 1) was 16794, the activity at 0.00586 µM (ACE2; Semagacestat 0.00586 μM, Repeat 1, read-out: % Activity Repeat 1) was 99% and the “ACE2 Activity (Fluorescence count) Repeat 2” value (ACE2; Semagacestat 0.00586 μM, Repeat 2) was 17665. For the same molecule, the activity at 0.00586 µM (ACE2; Semagacestat 0.00586 μM, Repeat 2, read-out: % Activity Repeat 2) was 104%, the “ACE2 Activity (Fluorescence count) Repeat 1” value (ACE2; Semagacestat 0.0117 μM, Repeat 1) was 17480 and the activity at 0.0117 µM (ACE2; Semagacestat 0.0117 μM, Repeat 1, read-out: % Activity Repeat 1) was 103%. The “ACE2 Activity (Fluorescence count) Repeat 2” value (ACE2; Semagacestat 0.0117 μM, Repeat 2) was 17772, the activity at 0.0117 µM (ACE2; Semagacestat 0.0117 μM, Repeat 2, read-out: % Activity Repeat 2) was 105% and the “ACE2 Activity (Fluorescence count) Repeat 1” value (ACE2; Semagacestat 0.0234 μM, Repeat 1) was 17334. The activity at 0.0234 µM (ACE2; Semagacestat 0.0234 μM, Repeat 1, read-out: % Activity Repeat 1) was 102%, the “ACE2 Activity (Fluorescence count) Repeat 2” value (ACE2; Semagacestat 0.0234 μM, Repeat 2) was 17846 and the activity at 0.0234 µM (ACE2; Semagacestat 0.0234 μM, Repeat 2, read-out: % Activity Repeat 2) was 105%. The “ACE2 Activity (Fluorescence count) Repeat 1” value (ACE2; Semagacestat 0.188 μM, Repeat 1) was 16603, the activity at 0.188 µM (ACE2; Semagacestat 0.188 μM, Repeat 1, read-out: % Activity Repeat 1) was 97% and the “ACE2 Activity (Fluorescence count) Repeat 2” value (ACE2; Semagacestat 0.188 μM, Repeat 2) was 16796. It also gave an activity at 0.188 µM (ACE2; Semagacestat 0.188 μM, Repeat 2, read-out: % Activity Repeat 2) of 99%, an activity at […] (ACE2; Semagacestat 0.75 μM, Repeat 1, read-out: % Activity Repeat 1) of 85% and an activity at […] (ACE2; Semagacestat 0.75 μM, Repeat 2, read-out: % Activity Repeat 2) of 98%. For the same molecule, the activity at […] (ACE2; Semagacestat 1.5 μM, Repeat 1, read-out: % Activity Repeat 1) was 78%, the activity at […] (ACE2; Semagacestat 1.5 μM, Repeat 2, read-out: % Activity Repeat 2) was 85% and the “effect on ACE2 activity (in words)” value (ACE2; test range 0.0029-1.5) was “inhibited ACE2 activity”. The IC50 (Notch signaling) was 0.0141 µM.
For `CCC[C@@]1(CCc2ccccc2)CC(O)=C([C@H](CC)c2cccc(NS(=O)(=O)c3ccc(C(F)(F)F)cn3)c2)C(=O)O1` [Tipranavir, N-[3-[(1R)-1-[(6R)-5,6-dihydro-4-hydroxy-2-oxo-6-(2-phenylethyl)-6-propyl-2H-pyran-3-yl]propyl]phenyl]-5-(trifluoromethyl)-2-pyridinesulfonamide], the Ki (HIV aspartyl protease) is listed as < 0.001 µM.
For `CC[C@@]1(O)C(=O)OCc2c1cc1n(c2=O)Cc2cc3c(CN(C)C)c(O)ccc3nc2-1` [Topotecan, 10-[(dimethylamino)methyl]-4S-ethyl-4,9-dihydroxy-1H-pyrano[3′,4′:6,7]indolizino[1,2-b]quinoline-3,14(4H,12H)-dione, monohydrochloride], the IC50 [8] is listed as 0.033 µM and the IC50 [9] is listed as 0.28 µM.
In the case of `COc1ccc(CN2CCNCC2)c(OC)c1OC` [Trimetazidine (hydrochloride), 1-[(2,3,4-trimethoxyphenyl)methyl]-piperazine, dihydrochloride], the IC50 [10] is given as 0.075 µM.
